In US20230255943A1, “MMP-9 AND MMP-12 INHIBITION FOR TREATING SPINAL CORD INJURY OR RELATED INJURY TO NEUROLOGICAL TISSUE” (The University of Birmingham, priority 2020, published 2023):

Assays:
[1] = tested on: rats with DC crush injury; assay: Ladder crossing (locomotor function) in rat DC model; format: in vivo; conditions: over 6 weeks
Procedure: The efficacy of oral AZD3342 in the DC injury model in adult Sprague-Dawley rat was also assessed. Animals were divided into 6 groups: (1), Sham (control); (2), DC crush injury+Vehicle; (3), DC crush injury+15 mg/kg AZD3342; (4), DC crush injury+75 mg/kg […]; (5), DC crush injury+375 mg/kg AZD3342; and (6), DC crush injury+Melatonin. Animals were dosed twice daily with oral AZD3342 or vehicle with the experimenters masked to the treatment conditions. These experiments were performed with n=6 rats/group and repeated on 2-3 independent occasions (total n=12-18 rats/group/test).
Functional testing after DC lesion and treatment was carried out as described previously (N. D. Fagoe, C. L. Attwell, R. Eggers, L. Tuinenbreijer, D. Kouwenhoven, J. Verhaagen, M. R. Mason, Evaluation of Five Tests for Sensitivity to Functional Deficits following Cervical or Thoracic Dorsal Column Transection in the Rat. PLoS One 11, e0150141 (2016)). […]
Horizontal ladder test: This tests the animals locomotor function and is performed on a 0.9-meter-long horizontal ladder with a diameter of 15.5 cm and randomly adjusted rungs with variable gaps of 3.5-5.0 cm. Animals were assessed traversing the ladder and the left and right rear paw slips were recorded along with the total number of steps and the mean error rate as: the number of slips/total number of steps.

IL-1β, TNF-α and IL-6 = assay: Proinflammatory pain markers after CC SCI in mice; format: in vivo, mouse; conditions: oral gavage immediately after injury
Procedure: CC SCI was administered at the T7-T8 vertebral level after exposure of T6-T9 by laminectomy. The aneurysm clip applicator was oriented in a bilateral direction and an aneurysm clip with a closing force of 24 g was applied extradurally for 60 s, as described previously (A. S. Rivlin, C. H. Tator, Effect of duration of acute spinal cord compression in a new acute cord injury model in the rat. Surg Neurol 10, 38-43 (1978):E. Esposito, I. Paterniti, E. Mazzon, T. Genovese, M. Galuppo, R. Meli, P. Bramanti, S. Cuzzocrea, MK801 attenuates secondary injury in a mouse experimental compression model of spinal cord trauma. BMC Neurosci 12, 31 (2011)).
The urinary bladders were manually emptied twice daily until bladder function was regained. Adult male C57BL6 mice (25-30 g) (Charles River, Margate, UK) were randomly allocated to either: (1), Sham (control; laminectomy but no CC SCI); (2), CC SCI+vehicle; (3), CC SCI+200 mg/kg AZD1236 (oral); (4), CC SCI+5 mg/kg AZD1236 (it). All experiments were performed with n=6 mice/group and repeated on 3 independent occasions (total=18 mice/group/test).
The lesion site+5 mm either side (DC and CC SCI, n=6 mice/rats/group, 2 independent repeats (total n=12 mice/rats/group)) was dissected and rapidly frozen in liquid N2 and stored at −80° C. until required. […] The levels of mRNA of MMP-9, MMP-12, IL-1β, TNF-α and IL-6 were determined using pre-validated mouse primer sequences from complimentary DNA prepared from extracted mRNA and qRT-PCR was performed using a LightCycler PCR machine (Roche, Burgess Hill, UK) (M. L. Read, S. Mir, R. Spice, R. J. Seabright, E. L. Suggate, Z. Ahmed, M. Berry, A. Logan, Profiling RNA interference (RNAi)-mediated toxicity in neural cultures for effective short interfering RNA design. J Gene Med 11, 523-534 (2009)). […] Fold changes were computed using the ΔΔCt method (M. L. Read, S. Mir, R. Spice, R. J. Seabright, E. L. Suggate, Z. Ahmed, M. Berry, A. Logan, Profiling RNA interference (RNAi)-mediated toxicity in neural cultures for effective short interfering RNA design. J Gene Med 11, 523-534 (2009).

Row | SMILES | locomotor function (ladder crossing) [1] | proinflammatory pain markers after CC injury, comparison with pain medications (FIG. 7) (IL-1β, TNF-α and IL-6)
1 | C[C@]1(CS(=O)(=O)N2CCC(Oc3ccc(Cl)cn3)CC2)NC(=O)NC1=O [AZD3342, (5S)-5-[4-(5-chloro-pyridin-2-yloxy)-piperidine-1-sulfonylmethyl]-5-methylimidazolidine-2,4-dione] | significantly improved | –
2 | C[C@]1(CS(=O)(=O)N2CC=C(C#Cc3cnc(C4CC4)nc3)CC2)NC(=O)NC1=O [AZD1236] | – | significantly attenuates
